Measurements taken from US5272147A, “Pyrazolopyrimidinone antianginal agents” (Pfizer Inc., priority 1991, dated 1993).

Legend:
Format in all cases: biochemical
cGMP-inhibited cAMP PDE = molecular target: T1, cGMP-inhibited cAMP PDE (Oryctolagus cuniculus, UniProt G1ST54); assay: Phosphodiesterase activity: inhibition of cGMP-inhibited cAMP PDE from rabbit platelets; conditions: in vitro
T1 construct: The PDE enzymes are isolated from rabbit platelets and rat kidney; from tissue; host or cells: rabbit platelets
T1 sequence (G1ST54 1-1128): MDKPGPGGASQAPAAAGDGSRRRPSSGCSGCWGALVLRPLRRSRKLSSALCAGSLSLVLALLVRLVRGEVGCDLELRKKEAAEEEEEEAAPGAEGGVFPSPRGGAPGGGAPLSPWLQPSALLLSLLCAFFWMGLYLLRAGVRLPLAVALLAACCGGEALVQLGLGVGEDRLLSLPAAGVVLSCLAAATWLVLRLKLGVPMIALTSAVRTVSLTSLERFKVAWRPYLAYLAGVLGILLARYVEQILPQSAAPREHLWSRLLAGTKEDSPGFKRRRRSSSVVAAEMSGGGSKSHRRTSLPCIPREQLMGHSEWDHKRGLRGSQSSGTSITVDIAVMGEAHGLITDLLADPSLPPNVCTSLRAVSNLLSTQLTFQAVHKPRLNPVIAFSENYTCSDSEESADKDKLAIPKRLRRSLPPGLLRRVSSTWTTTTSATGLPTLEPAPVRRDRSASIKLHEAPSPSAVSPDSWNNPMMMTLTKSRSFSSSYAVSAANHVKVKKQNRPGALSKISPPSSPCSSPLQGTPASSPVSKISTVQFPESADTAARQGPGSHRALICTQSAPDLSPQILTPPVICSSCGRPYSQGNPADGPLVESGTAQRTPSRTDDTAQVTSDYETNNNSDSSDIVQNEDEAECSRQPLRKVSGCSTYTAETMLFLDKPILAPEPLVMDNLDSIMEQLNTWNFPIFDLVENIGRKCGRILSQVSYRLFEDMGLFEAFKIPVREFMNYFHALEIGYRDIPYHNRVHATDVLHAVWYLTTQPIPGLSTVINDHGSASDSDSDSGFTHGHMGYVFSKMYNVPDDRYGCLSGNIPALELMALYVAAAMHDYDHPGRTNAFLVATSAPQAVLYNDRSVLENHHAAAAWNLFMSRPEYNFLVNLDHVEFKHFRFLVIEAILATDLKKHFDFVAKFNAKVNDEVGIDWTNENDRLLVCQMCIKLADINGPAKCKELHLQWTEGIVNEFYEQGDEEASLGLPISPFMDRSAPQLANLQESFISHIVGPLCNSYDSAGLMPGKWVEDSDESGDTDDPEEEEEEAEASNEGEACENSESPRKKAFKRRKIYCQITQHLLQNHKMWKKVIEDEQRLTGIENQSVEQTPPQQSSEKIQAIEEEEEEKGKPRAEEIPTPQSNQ
Method: (§1) Compound affinities for cGMP and cAMP PDEs are assessed by determination of their IC50 value (the concentration of inhibitor required for 50% inhibition of enzyme activity). The PDE enzymes are isolated from rabbit platelets and rat kidney, essentially by the method of W. J. Thompson et al. (Biochem., 1971, 10, 311). The calcium/calmodulin (Ca/CAM)-independentcGMP PDE and the cGMP-inhibited cAMP PDE enzymes are obtained from rabbit platelets whilst, of the four major PDE enzymes of the rat kidney, the Ca/CAM-dependent cGMP PDE (fraction I) is isolated. Assays are performed using a modification of the "batch" method of W. J. Thompson and M. M. Appleman (Biochem., 1979, 18, 5228).

[1] = molecular target: T2, Ca/CAM-independent cGMP PDE (Oryctolagus cuniculus, UniProt G1SX67); assay: Phosphodiesterase activity: inhibition of calcium/calmodulin (Ca/CAM)-independent cGMP PDE from rabbit platelets; conditions: in vitro; Ca/CAM-independent cGMP PDE from rabbit platelets
T2 construct: The PDE enzymes are isolated from rabbit platelets and rat kidney; from tissue; host or cells: rabbit platelets
Method: as §1

[2] = test system: Ca/CAM-independent cGMP PDE; assay: as above; conditions: between Ca/CAM-independent cGMP PDE and cGMP-inhibited cAMP PDE (IC50 cAMP / IC50 cGMP)
Method: as §1

Compound | IC50 (cGMP-inhibited cAMP PDE) | IC50 [1] | SELECTIVITY RATIO [2]
CCCOc1ccc(/C=C/C(=O)O)cc1-c1nc2c(CCC)nn(C)c2c(=O)[nH]1 [Example 20, (E)-3-(1-Methyl-7-oxo-3-n-propyl-1,6-dihydro-7H-pyrazolo[4,3-d]-pyrimidin-5-yl)-4-n-propoxycinnamic acid] | 59 µM | 0.0037 µM | 15,945
CCCOc1ccc(C(=O)CN2CCN(C)CC2)cc1-c1nc2c(CCC)nn(C)c2c(=O)[nH]1 [Example 15, 1-Methyl-5-[5-(4-methyl-1-piperazinylacetyl)-2n-propoxyphenyl]-3-n-propyl-1,6-dihydro-7H-pyrazolo [4,3-d]pyrimidin-7-one] | 75 µM | 0.0034 µM | 22,058
CCCc1nn(C)c2c(=O)[nH]c(-c3cc(C(=O)N4CCN(C)CC4)ccc3OCC)nc12 [Example 30, 5-[2-Ethoxy-5-(4-methylpiperazinylcarbonyl)phenyl]-1-methyl-3-n-propyl-1,6-dihydro-7H-pyrazolo[4,3-d]-pyrimidin-7-one] | 58 µM | 0.0014 µM | 
CCCOc1ccc(COCCO)cc1-c1nc2c(CCC)nn(C)c2c(=O)[nH]1 [Example 39, 5-[5-(2-Hydroxyethoxymethyl)-2-n-propoxyphenyl]-1-methyl-3-n-propyl-1,6-dihydro-7H-pyrazolo[4,3-d]-pyrimidin-7-one] | 54 µM | 0.0053 µM | 10,188
CCCc1nn(C)c2c(=O)[nH]c(-c3cc(C(=O)O)ccc3OCC)nc12 [Example 29, 4-Ethoxy-3-(-1-methyl-3-n-propyl-1,6-dihydro-7H-pyrazolo[4,3-d]-pyrimidin-5-yl)benzoic acid] | 84 µM | 0.0055 µM | 15,272
CCCOc1ccc(C(O)CN2CCOCC2)cc1-c1nc2c(CCC)nn(C)c2c(=O)[nH]1 (centres unmarked) [Example 16, 5-[5-(1-Hyroxy-2-morpholinoethyl)-2-n-propoxyphenyl]-1-methyl-3-n-propyl-1,6-dihydro-7H-pyrazolo[4,3-d]pyrimidin-7-one] | 53 µM | 0.0037 µM | 14,324
CCCc1nn(C)c2c(=O)[nH]c(-c3cc(/C=C/C(=O)N(C)C)ccc3OCC)nc12 [Example 25, (E)-4-Ethoxy-3(1-methyl-3-n-propyl-1,6-dihydro-7H-pyrazolo[4,3-d]-pyrimidin-5-yl)cinnamic acid dimethylamide] | 84 µM | 0.0034 µM | 24,705
CCCc1nn(C)c2c(=O)[nH]c(-c3cc(C(O)CN4CCOCC4)ccc3OCC)nc12 (centres unmarked) [Example 11] | 57 µM | 0.0049 µM | 11,632
CCCc1nn(C)c2c(=O)[nH]c(-c3cc(C(=O)CN4CCOCC4)ccc3OCC)nc12 [Example 4, 5-(2-ethoxy-5-morpholinoacetylphenyl)-1-methyl-3-n-propyl-1,6dihydro-7H-pyrazolo[4,3-d]pyrimidin-7-one] | 63 µM | 0.0018 µM | 35,000
CCCc1nn(C)c2c(=O)[nH]c(-c3cc(C(=O)CN4CCN(C(C)=O)CC4)ccc3OCC)nc12 [Example 3, 5-[5-(4-acetyl-1-piperazinyl)acetyl-2-ethoxyphenyl]-1-methyl-3-n-propyl-1,6-dihydro-7H-pyrazolo[4,3-d]pyrimidin-7-one] | 86 µM | 0.0022 µM | 39,090
CCCc1nn(C)c2c(=O)[nH]c(-c3cc(-n4ccnc4)ccc3OCC)nc12 [Example 31, 5-[2-Ethoxy-5-(1-imidazolyl)phenyl]-1-methyl-3-n-propyl-1,6-dihydro-7H-pyrazolo[4,3-d]-pyrimidin-7-one] | 56 µM | 0.0034 µM | 16,470
CCCOc1ccc(C(=O)CN2CCOCC2)cc1-c1nc2c(CCC)nn(C)c2c(=O)[nH]1 [Example 14, 1-Methyl-5-(5-morpholinoacetyl-2-n-propoxyphenyl)-3-n-propyl-1,6-dihydro-7H-pyrazolo[4,3-d]pyrimidin-7-one] | 57 µM | 0.001 µM | 57,000
CCCc1nn(C)c2c(=O)[nH]c(-c3cc(-c4nccn4C)ccc3OCC)nc12 [Example 32, 5-[2-ethoxy-5-(1-methyl-2-imidazolyl)phenyl]-1methyl-3-n-propyl-1,6-dihydro-7H-pyrazolo[4,3-d]pyrimidin-7-one] | 38 µM | 0.0014 µM | 27,142
